Experimental data reported in ChEMBL document CHEMBL1149245 (J Med Chem, 2004).
pEC50, pKi: −log10 of the molar value. Calls of active or inactive are those of the source. The rule behind the calls is not given here.

What was measured:
[1] = target: T1, Alpha-2A adrenergic receptor (Homo sapiens, UniProt P08913); experiment: Displacement of [3H]RX821002 from human adrenergic alpha2A receptor expressed in CHO cells; assay type: cell-based
T1 sequence (P08913 whole entry): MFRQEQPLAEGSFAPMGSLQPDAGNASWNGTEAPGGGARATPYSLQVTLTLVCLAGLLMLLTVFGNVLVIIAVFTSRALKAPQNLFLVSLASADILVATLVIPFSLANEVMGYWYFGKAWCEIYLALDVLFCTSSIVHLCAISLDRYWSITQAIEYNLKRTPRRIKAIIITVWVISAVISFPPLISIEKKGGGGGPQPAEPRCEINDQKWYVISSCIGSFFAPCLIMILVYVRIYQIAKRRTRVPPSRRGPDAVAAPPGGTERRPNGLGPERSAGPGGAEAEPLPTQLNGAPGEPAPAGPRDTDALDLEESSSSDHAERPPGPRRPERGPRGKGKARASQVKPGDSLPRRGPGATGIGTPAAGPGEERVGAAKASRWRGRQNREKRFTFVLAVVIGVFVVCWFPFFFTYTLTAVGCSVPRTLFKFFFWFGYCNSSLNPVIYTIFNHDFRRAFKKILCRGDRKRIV

[2] = target: T2, Alpha-2B adrenergic receptor (Homo sapiens, UniProt P18089); experiment: Displacement of [3H]RX821002 from human adrenergic alpha-2B receptor expressed in CHO cells; assay type: cell-based
T2 sequence (P18089 whole entry): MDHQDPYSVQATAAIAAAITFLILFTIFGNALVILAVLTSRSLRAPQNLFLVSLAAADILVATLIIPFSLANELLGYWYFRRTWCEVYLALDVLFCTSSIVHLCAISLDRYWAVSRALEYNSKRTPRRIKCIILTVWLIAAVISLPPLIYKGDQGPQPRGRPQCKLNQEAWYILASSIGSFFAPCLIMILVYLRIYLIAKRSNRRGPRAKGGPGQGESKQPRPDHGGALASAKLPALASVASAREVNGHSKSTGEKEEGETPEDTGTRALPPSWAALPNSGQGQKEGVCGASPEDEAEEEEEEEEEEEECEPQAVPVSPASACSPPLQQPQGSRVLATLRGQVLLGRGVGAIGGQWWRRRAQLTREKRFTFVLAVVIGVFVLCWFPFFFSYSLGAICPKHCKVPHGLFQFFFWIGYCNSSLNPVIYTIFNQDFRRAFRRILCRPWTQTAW

[3] = target: T3, Alpha-2C adrenergic receptor (Homo sapiens, UniProt P18825); experiment: Displacement of [3H]RX821002 from human adrenergic Alpha-2C receptor expressed in CHO cells; assay type: cell-based
T3 sequence (P18825 whole entry): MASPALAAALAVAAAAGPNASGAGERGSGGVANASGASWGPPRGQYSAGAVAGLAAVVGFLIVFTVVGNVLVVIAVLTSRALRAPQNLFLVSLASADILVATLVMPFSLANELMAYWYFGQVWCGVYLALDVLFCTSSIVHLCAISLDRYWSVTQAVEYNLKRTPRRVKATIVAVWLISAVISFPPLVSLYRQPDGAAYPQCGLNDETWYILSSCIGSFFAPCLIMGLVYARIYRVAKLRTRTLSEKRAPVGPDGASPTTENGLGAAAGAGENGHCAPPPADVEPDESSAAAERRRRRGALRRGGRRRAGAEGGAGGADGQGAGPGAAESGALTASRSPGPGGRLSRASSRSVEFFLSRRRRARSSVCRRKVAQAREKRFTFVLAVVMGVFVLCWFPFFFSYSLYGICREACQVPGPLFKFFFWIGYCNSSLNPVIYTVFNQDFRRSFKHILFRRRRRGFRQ

[4] = target: T1, Alpha-2A adrenergic receptor; assay type: functional, cell-based, CHO
Description: Agonist activity at human adrenergic alpha-2A receptor expressed in CHO cells assessed as extracellular acidification by cytosensor microphysiometry

[5] = target: T3, Alpha-2C adrenergic receptor; assay type: functional, cell-based, CHO
Description: Agonist activity at human adrenergic alpha-2C receptor expressed in CHO cells assessed as extracellular acidification by cytosensor microphysiometry

[6] = target: T4, Alpha-2C adrenergic receptor (Homo sapiens) (UniProt P18825); experiment: (§1) Agonist activity at human adrenergic Alpha-2C receptor expressed in CHO cells assessed as inhibition of forskolin-induced cAMP accumulation; assay type: functional, cell-based
T4 sequence (whole entry): T3 sequence (P18825 whole entry)

[7] = target: T3, Alpha-2C adrenergic receptor; experiment: as §1; assay type: functional, cell-based
[8] = target: T2, Alpha-2B adrenergic receptor; experiment: Agonist activity at human adrenergic alpha-2B receptor expressed in CHO cells assessed as extracellular acidification by cytosensor microphysiometry; assay type: functional, cell-based
[9] = target: T1, Alpha-2A adrenergic receptor; experiment: (§2) Agonist activity at human adrenergic alpha-2A receptor expressed in CHO cells assessed as inhibition of forskolin-induced cAMP accumulation; assay type: functional, cell-based
[10] = target: T5, Alpha-2A adrenergic receptor (Homo sapiens) (UniProt P08913); experiment: as §2; assay type: functional, cell-based
T5 sequence (whole entry): T1 sequence (P08913 whole entry)

Nischarin = Nischarin (Homo sapiens, UniProt Q9Y2I1); experiment: Binding affinity to imidazoline receptor 1
Chain of Nischarin (Q9Y2I1 whole entry): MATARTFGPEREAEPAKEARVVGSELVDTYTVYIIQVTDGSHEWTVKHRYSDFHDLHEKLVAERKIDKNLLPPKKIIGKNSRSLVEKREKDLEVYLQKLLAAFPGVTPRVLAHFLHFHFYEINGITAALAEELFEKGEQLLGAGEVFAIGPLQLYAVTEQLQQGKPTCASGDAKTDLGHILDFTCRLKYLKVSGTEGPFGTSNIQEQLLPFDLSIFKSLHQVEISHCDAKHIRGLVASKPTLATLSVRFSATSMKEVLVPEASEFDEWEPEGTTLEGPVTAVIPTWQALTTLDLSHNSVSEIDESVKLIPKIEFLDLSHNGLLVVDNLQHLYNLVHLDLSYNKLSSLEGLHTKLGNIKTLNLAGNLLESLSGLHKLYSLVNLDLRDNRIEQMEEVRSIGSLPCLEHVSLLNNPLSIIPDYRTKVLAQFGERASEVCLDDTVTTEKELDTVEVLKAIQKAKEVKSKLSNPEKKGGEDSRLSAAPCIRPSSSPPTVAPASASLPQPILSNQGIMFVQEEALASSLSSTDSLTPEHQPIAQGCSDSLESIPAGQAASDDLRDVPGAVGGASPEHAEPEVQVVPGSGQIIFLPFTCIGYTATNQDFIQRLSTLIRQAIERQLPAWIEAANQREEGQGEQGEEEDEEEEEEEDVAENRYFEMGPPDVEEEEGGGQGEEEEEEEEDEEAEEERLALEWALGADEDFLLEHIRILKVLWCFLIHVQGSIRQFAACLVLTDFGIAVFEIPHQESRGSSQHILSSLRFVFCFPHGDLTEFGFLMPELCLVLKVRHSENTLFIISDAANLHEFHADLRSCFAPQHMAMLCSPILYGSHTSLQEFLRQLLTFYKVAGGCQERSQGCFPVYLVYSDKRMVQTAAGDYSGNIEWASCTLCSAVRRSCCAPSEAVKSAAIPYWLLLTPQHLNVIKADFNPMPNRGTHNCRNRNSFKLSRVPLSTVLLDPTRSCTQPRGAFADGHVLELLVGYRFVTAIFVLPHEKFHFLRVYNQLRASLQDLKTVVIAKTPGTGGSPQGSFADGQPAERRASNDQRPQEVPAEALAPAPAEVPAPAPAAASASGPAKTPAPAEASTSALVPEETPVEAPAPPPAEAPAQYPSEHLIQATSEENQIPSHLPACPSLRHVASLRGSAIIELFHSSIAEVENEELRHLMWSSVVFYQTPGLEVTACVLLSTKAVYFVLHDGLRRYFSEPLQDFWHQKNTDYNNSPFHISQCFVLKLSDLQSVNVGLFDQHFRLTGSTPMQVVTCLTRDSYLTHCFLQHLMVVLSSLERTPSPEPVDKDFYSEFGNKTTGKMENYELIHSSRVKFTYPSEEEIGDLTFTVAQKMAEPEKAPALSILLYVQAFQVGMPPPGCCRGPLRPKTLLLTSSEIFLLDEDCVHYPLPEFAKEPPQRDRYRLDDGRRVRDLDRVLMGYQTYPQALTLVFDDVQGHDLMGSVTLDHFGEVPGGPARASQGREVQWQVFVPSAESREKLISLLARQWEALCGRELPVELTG

| SMILES | pKi [1] | pKi [2] | pKi [3] | pEC50 [4] | pEC50 [5] | pEC50 [8] | pEC50 [9] | Intrinsic activity [10] | Intrinsic activity [6] | pEC50 [7] | Activity [10] | pKi (Nischarin) |
| --- | --- | --- | --- | --- | --- | --- | --- | --- | --- | --- | --- | --- |
| CC(Oc1ccccc1-c1ccccc1)C1=NCCS1 (stereo unspecified) | < 5.00 | < 5.00 | < 5.00 |  |  |  |  |  |  |  |  |  |
| CC(Oc1ccccc1-c1ccccc1)C1=NCCC1 (stereo unspecified) | 5.09 | 5.00 | 5.23 |  |  |  |  |  |  |  |  |  |
| CC(Oc1ccccc1-c1ccncc1)C1=NCCN1 (stereo unspecified) | 6.55 | 5.57 | 5.84 |  |  |  |  |  |  |  |  |  |
| CC(Oc1ccccc1-c1ccccc1)C1=NCCO1 (stereo unspecified) | 5.09 | 5.00 | 5.23 |  |  |  |  |  |  |  |  |  |
| CC(Oc1ccccc1-c1ccccn1)C1=NCCN1 (stereo unspecified) | 5.92 | 5.48 | 5.90 |  |  |  |  |  |  |  |  |  |
| CC(Sc1ccccc1-c1ccccc1)C1=NCCN1 (stereo unspecified) | 6.47 | 5.45 | 6.15 |  |  |  |  |  |  |  |  |  |
| c1ccc(-c2ccccc2C2OC2C2=NCCN2)cc1 (cis isomer) | 5.91 | 4.70 | 5.19 | 5.46 | 5.57 |  |  |  |  |  |  |  |
| CC(Oc1ccccc1-c1cccc([N+](=O)[O-])c1)C1=NCCN1 (stereo unspecified) | 7.22 | 6.18 | 6.63 |  | 7.00 |  |  |  | 0.6 | 6.80 | inactive |  |
| CC(Oc1ccccc1-c1ccccc1)C1=NCCN1 (stereo unspecified) [BIPHENYLINE] | 7.32 | 6.30 | 6.70 | 6.94 | 7.24 | 6.19 |  |  |  |  |  | 6.90 |
| c1ccc(-c2ccccc2C2OC2C2=NCCN2)cc1 (stereo unspecified) | 5.82 | 5.91 | 5.37 |  |  |  |  |  |  |  |  |  |
| CC(Oc1ccccc1-c1ccccc1O)C1=NCCN1 (stereo unspecified) | 6.51 | 6.00 | 5.79 |  |  |  |  |  |  |  |  |  |

More lines, in order of rising pKi [1], values ahead:

| pKi [1] | pKi [2] | pKi [3] | pEC50 [4] | pEC50 [5] | pEC50 [8] | pEC50 [9] | Intrinsic activity [10] | SMILES | Intrinsic activity [6] | pEC50 [7] | Activity [10] | pKi (Nischarin) |
| --- | --- | --- | --- | --- | --- | --- | --- | --- | --- | --- | --- | --- |
| 6.76 | 5.81 | 5.91 |  |  |  |  |  | CC(Oc1ccccc1-c1ccccc1[N+](=O)[O-])C1=NCCN1 (stereo unspecified) |  |  |  |  |
| 6.86 | 6.03 | 7.19 | 6.50 | 7.30 | 6.00 | 6.23 | 0.5 | CC(Oc1ccccc1-c1cccnc1)C1=NCCN1 (stereo unspecified) | 1 | 7.40 |  |  |
| 6.91 | 6.30 | 6.52 |  |  |  |  |  | CC(Oc1ccccc1-c1ccc([N+](=O)[O-])cc1)C1=NCCN1 (stereo unspecified) |  |  |  |  |
| 7.04 | 5.94 | 6.15 | 6.41 | 7.03 | 5.42 |  |  | CC(Nc1ccccc1-c1ccccc1)C1=NCCN1 (stereo unspecified) |  |  |  |  |
| 7.29 | 6.27 | 6.61 |  | 5.80 |  |  |  | Cc1cccc(-c2ccccc2OC(C)C2=NCCN2)c1 (stereo unspecified) |  |  |  |  |
| 7.33 | 6.08 | 6.63 |  | 6.44 |  |  |  | Cc1ccccc1-c1ccccc1OC(C)C1=NCCN1 (stereo unspecified) |  |  |  |  |
| 7.34 | 6.38 | 6.88 | 7.12 | 7.03 |  |  |  | CC(Oc1ccccc1-c1ccsc1)C1=NCCN1 (stereo unspecified) |  |  |  |  |
| 7.38 | 6.40 | 6.60 |  | 6.08 |  |  |  | Cc1ccc(-c2ccccc2OC(C)C2=NCCN2)cc1 (stereo unspecified) |  |  |  |  |
| 7.43 | 6.32 | 6.51 | 6.59 | 6.30 |  |  |  | CC(Oc1ccccc1-c1cccc(N)c1)C1=NCCN1 (stereo unspecified) |  |  |  |  |
| 7.47 | 6.09 | 6.48 |  |  |  |  |  | CC(Oc1ccccc1-c1ccc(O)cc1)C1=NCCN1 (stereo unspecified) |  |  |  |  |
| 7.56 | 6.45 | 7.75 |  | 7.33 | 5.28 |  |  | CC(Oc1ccccc1-c1cccc(O)c1)C1=NCCN1 (stereo unspecified) |  |  |  |  |
| 7.77 | 6.67 | 7.14 | 7.38 | 7.23 | 6.00 |  |  | CC(Oc1ccccc1-c1cccs1)C1=NCCN1 (stereo unspecified) |  |  |  |  |
| 7.83 | 6.57 | 7.77 | 6.98 | 7.22 |  |  |  | CC(Oc1ccccc1-c1cccc(F)c1)C1=NCCN1 (stereo unspecified) |  |  |  |  |
